Experimental data taken from article PMC8664850, “Design, synthesis, and biological evaluation of novel urolithins derivatives as potential phosphodiesterase II inhibitors” (Scientific Reports, 2021).
Blank lines part the entries; values can stand above or below the molecule they belong to.

How the values were obtained:
[1] = molecular target: T1, Phosphodiesterase II (PDE2) (Homo sapiens, UniProt O00408); experiment: PDE2 enzyme inhibitory activity, AlphaScreen cAMP kit method; assay type: biochemical; details: in vitro, enzyme level, seven concentrations, mean of at least three experiments
T1 construct: the recombinant plasmid pET15b-PDE2A (580–941) was donated; made in house; host or cells: E. coli BL21-Codon Plus (DE3)
T1 sequence (O00408 580-941): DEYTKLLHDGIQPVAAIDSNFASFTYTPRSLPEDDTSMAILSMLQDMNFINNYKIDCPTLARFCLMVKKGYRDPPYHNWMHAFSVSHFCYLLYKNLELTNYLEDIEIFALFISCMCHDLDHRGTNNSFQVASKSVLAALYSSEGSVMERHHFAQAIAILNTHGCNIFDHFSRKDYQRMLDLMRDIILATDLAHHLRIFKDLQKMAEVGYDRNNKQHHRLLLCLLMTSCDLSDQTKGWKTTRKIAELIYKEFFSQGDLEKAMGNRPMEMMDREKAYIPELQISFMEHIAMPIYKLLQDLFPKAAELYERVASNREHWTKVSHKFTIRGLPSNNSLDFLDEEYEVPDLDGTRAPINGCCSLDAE
Text: The AlphaScreen kit method was used to detect PDE2 inhibitory activity of the 27 synthesized compounds (2a–n and 4a–m) in vitro, each diluted at seven concentrations, and each carried out with three sets of parallel experiments. The IC50 values were obtained by fitting calculations using software Graphpad Prism 7.

SMILES: CCCCCOc1ccc2c(c1)oc(=O)c1cc(C)ccc12 [Compound 2e, 8-methyl-3-(pentyloxy)-6H-benzo[c]chromen-6-one]
IC50 [1]: 34 µM

SMILES: O=c1oc2cc(O)ccc2c2c1CCCC2 [Compound 3, 3-Hydroxy-7,8,9,10-tetrahydro-6H-benzo[c]chromen-6-one]
IC50 [1]: 93.2 µM

SMILES: CCC(C)Oc1ccc2c3c(c(=O)oc2c1)CCCC3 (centres unmarked) [Compound 4d, 3-(sec-butoxy)-7,8,9,10-tetrahydro-6H-benzo[c]chromen-6-one]
IC50 [1]: > 100 µM
melting point: 74 to 74.2 °C

SMILES: Cc1ccc2c(c1)c(=O)oc1cc(O)ccc12 [Compound 1, 3-hydroxy-8-methyl-6H-benzo [C]chromen-6-one]
IC50 [1]: > 100 µM

SMILES: CCC(C)Oc1ccc2c(c1)oc(=O)c1cc(C)ccc12 (centres unmarked) [Compound 2d, 3-(sec-butoxy)-8-methyl-6H-benzo[c]chromen-6-one]
IC50 [1]: > 100 µM
melting point: 62.6 to 63.4 °C

SMILES: Cc1ccc2c(c1)c(=O)oc1cc(OCC3OCCO3)ccc12 [Compound 2h, 3-((1,3-dioxolan-2-yl)methoxy)-8-methyl-6H-benzo[c]chromen-6-one]
IC50 [1]: > 100 µM
melting point: 148.2 to 148.8 °C

SMILES: COc1cc(COc2ccc3c(c2)oc(=O)c2cc(C)ccc23)cc(OC)c1 [Compound 2n, 3-((3,5-dimethoxybenzyl)oxy)-8-methyl-6H-benzo[c]chromen-6-one]
IC50 [1]: > 100 µM
melting point: 158.7 to 160.2 °C

SMILES: CCOc1ccc2c(c1)oc(=O)c1cc(C)ccc12 [Compound 2a, 3-ethoxy-8-methyl-6H-benzo[c]chromen-6-one]
IC50 [1]: > 100 µM

SMILES: Cc1ccc2c(c1)c(=O)oc1cc(OCC3CCCCC3)ccc12 [Compound 2j, 3-(cyclohexylmethoxy)-8-methyl-6H-benzo[c]chromen-6-one]
IC50 [1]: 65.7 µM
melting point: 113.3 to 115.1 °C

SMILES: Cc1ccc2c(c1)c(=O)oc1cc(OC(C)C)ccc12 [Compound 2c, 3-isopropoxy-8-methyl-6H-benzo[c]chromen-6-one]
IC50 [1]: > 100 µM
melting point: 102.3 to 103 °C

SMILES: Cc1ccc2c(c1)c(=O)oc1cc(OCCC3OCCCO3)ccc12 [Compound 2m, 3-(2-(1,3-dioxan-2-yl)ethoxy)-8-methyl-6H-benzo[c]chromen-6-one]
IC50 [1]: > 100 µM
melting point: 170.1 to 172 °C

SMILES: CCCOc1ccc2c(c1)oc(=O)c1cc(C)ccc12 [Compound 2b, 8-methyl-3-propoxy-6H-benzo[c]chromen-6-one]
IC50 [1]: > 100 µM
melting point: 112.3 to 112.6 °C

SMILES: Cc1ccc2c(c1)c(=O)oc1cc(OCCC3OCCO3)ccc12 [Compound 2i, 3-(2-(1,3-dioxolan-2-yl)ethoxy)-8-methyl-6H-benzo[c]chromen-6-one]
IC50 [1]: > 100 µM

SMILES: Cc1ccc2c(c1)c(=O)oc1cc(OCC3CCCC3)ccc12 [Compound 2f, 3-(cyclopentylmethoxy)-8-methyl-6H-benzo[c]chromen-6-one]
IC50 [1]: > 100 µM
melting point: 122.8 to 123.6 °C

SMILES: Cc1ccc2c(c1)c(=O)oc1cc(OCc3ccccc3F)ccc12 [Compound 2l, 3-((2-fluorobenzyl)oxy)-8-methyl-6H-benzo[c]chromen-6-one]
IC50 [1]: > 100 µM
melting point: 154.9 to 155.5 °C

SMILES: Cc1ccc2c(c1)c(=O)oc1cc(OCC3CCOCC3)ccc12 [Compound 2k, 8-methyl-3-((tetrahydro-2H-pyran-4-yl)methoxy)-6H-benzo[c]chromen-6-one]
IC50 [1]: > 100 µM
melting point: 148 to 148.6 °C

SMILES: Cc1ccc2c(c1)c(=O)oc1cc(OCC3CCCO3)ccc12 (centres unmarked) [Compound 2g, 8-methyl-3-((tetrahydrofuran-2-yl)methoxy)-6H-benzo[c]chromen-6-one]
IC50 [1]: > 100 µM
melting point: 122.8 to 123.6 °C

Further lines, results first:

IC50 [1]: > 100 µM
melting point: 107.2 to 109.3 °C
SMILES: O=c1oc2cc(OCC3CCCCC3)ccc2c2c1CCCC2 [Compound 4i, 3-(cyclohexylmethoxy)-7,8,9,10-tetrahydro-6H-benzo[c]chromen-6-one]

IC50 [1]: > 100 µM
melting point: 107.1 to 108.3 °C
SMILES: CCCOc1ccc2c3c(c(=O)oc2c1)CCCC3 [Compound 4b, 3-propoxy-7,8,9,10-tetrahydro-6H-benzo[c]chromen-6-one]

IC50 [1]: > 100 µM
melting point: 124.6 to 125.2 °C
SMILES: O=c1oc2cc(OCC3CCOCC3)ccc2c2c1CCCC2 [Compound 4j, 3-((tetrahydro-2H-pyran-4-yl)methoxy)-7,8,9,10-tetrahydro-6H-benzo[c]chromen-6-one]

IC50 [1]: > 100 µM
melting point: 107.5 to 108.4 °C
SMILES: O=c1oc2cc(OCCC3OCCCO3)ccc2c2c1CCCC2 [Compound 4k, 3-(2-(1,3-dioxan-2-yl)ethoxy)-7,8,9,10-tetrahydro-6H-benzo[c]chromen-6-one]

IC50 [1]: > 100 µM
melting point: 112.2 to 114 °C
SMILES: O=c1oc2cc(OCC3CCCO3)ccc2c2c1CCCC2 (centres unmarked) [Compound 4f, 3-((tetrahydrofuran-2-yl)methoxy)-7,8,9,10-tetrahydro-6H-benzo[c]chromen-6-one]

IC50 [1]: > 100 µM
melting point: 111 to 112.3 °C
SMILES: O=c1oc2cc(OCCC3OCCO3)ccc2c2c1CCCC2 [Compound 4h, 3-(2-(1,3-dioxolan-2-yl)ethoxy)-7,8,9,10-tetrahydro-6H-benzo[c]chromen-6-one]

IC50 [1]: > 100 µM
melting point: 98.5 to 99.2 °C
SMILES: COc1cc(COc2ccc3c4c(c(=O)oc3c2)CCCC4)cc(OC)c1 [Compound 4m, 3-((3,5-dimethoxybenzyl)oxy)-7,8,9,10-tetrahydro-6H-benzo[c]chromen-6-one]

IC50 [1]: > 100 µM
melting point: 128.1 to 129.5 °C
SMILES: O=c1oc2cc(OCC3OCCO3)ccc2c2c1CCCC2 [Compound 4g, 3-((1,3-dioxolan-2-yl)methoxy)-7,8,9,10-tetrahydro-6H-benzo[c]chromen-6-one]

IC50 [1]: > 100 µM
melting point: 110.6 to 112.4 °C
SMILES: CCCCCOc1ccc2c3c(c(=O)oc2c1)CCCC3 [Compound 4e, 3-(pentyloxy)-7,8,9,10-tetrahydro-6H-benzo[c]chromen-6-one]

IC50 [1]: > 100 µM
melting point: 104.2 to 105.6 °C
SMILES: CCOc1ccc2c3c(c(=O)oc2c1)CCCC3 [Compound 4a, 3-ethoxy-7,8,9,10-tetrahydro-6H-benzo[c]chromen-6-one]

IC50 [1]: > 100 µM
melting point: 124.2 to 125.6 °C
SMILES: O=c1oc2cc(OCc3ccccc3F)ccc2c2c1CCCC2 [Compound 4l, 3-((2-fluorobenzyl)oxy)-7,8,9,10-tetrahydro-6H-benzo[c]chromen-6-one]

IC50 [1]: 34.3 µM
melting point: 85.4 to 87.5 °C
SMILES: CC(C)Oc1ccc2c3c(c(=O)oc2c1)CCCC3 [Compound 4c, 3-isopropoxy-7,8,9,10-tetrahydro-6H-benzo[c]chromen-6-one]
